Laboratory results taken from the supplement of paper PMC11451515.

System: SEM cells
Experiment: cell viability relative to DMSO control; higher = less cytotoxic
Conditions: 48 h
Summary of the method: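 Viability was expressed as a per-plate percentage of DMSO wells, with cell-free wells as background. Leukemia cells (NOMO1 or SEM at 500 cells/well, P12-Ichikawa at 1000 cells/well) were adapted for at least four passages in each medium and seeded in 1536-well plates (5 μl). Library compounds in DMSO were pin-dosed over an 11-point threefold series from 47 μM to 0.79 nM, and CellTiter-Glo One luminescence was read after 48 h at 37°C.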

[1] = HPLM + 10% dialyzed FBS, 0.000781 µM
[2] = HPLM + 10% dialyzed FBS, 0.00234 µM
[3] = HPLM + 10% dialyzed FBS, 0.00702 µM
[4] = HPLM + 10% dialyzed FBS, 0.0211 µM
[5] = HPLM + 10% dialyzed FBS, 0.0632 µM
[6] = HPLM + 10% dialyzed FBS, 0.19 µM
[7] = HPLM + 10% dialyzed FBS, 0.569 µM
[8] = HPLM + 10% dialyzed FBS, 1.71 µM
[9] = HPLM + 10% dialyzed FBS, 5.12 µM
[10] = HPLM + 10% dialyzed FBS, 15.4 µM
[11] = HPLM + 10% dialyzed FBS, 46.1 µM
[12] = RPMI 5 mM glucose + 10% FBS, 0.000781 µM
[13] = RPMI 5 mM glucose + 10% FBS, 0.00234 µM
[14] = RPMI 5 mM glucose + 10% FBS, 0.00702 µM
[15] = RPMI 5 mM glucose + 10% FBS, 0.0211 µM
[16] = RPMI 5 mM glucose + 10% FBS, 0.0632 µM
[17] = RPMI 5 mM glucose + 10% FBS, 0.19 µM
[18] = RPMI 5 mM glucose + 10% FBS, 0.569 µM
[19] = RPMI 5 mM glucose + 10% FBS, 1.71 µM
[20] = RPMI 5 mM glucose + 10% FBS, 5.12 µM
[21] = RPMI 5 mM glucose + 10% FBS, 15.4 µM
[22] = RPMI 5 mM glucose + 10% FBS, 46.1 µM
[23] = RPMI 5 mM glucose + 10% dialyzed FBS, 0.000781 µM
[24] = RPMI 5 mM glucose + 10% dialyzed FBS, 0.00234 µM
[25] = RPMI 5 mM glucose + 10% dialyzed FBS, 0.00702 µM
[26] = RPMI 5 mM glucose + 10% dialyzed FBS, 0.0211 µM
[27] = RPMI 5 mM glucose + 10% dialyzed FBS, 0.0632 µM
[28] = RPMI 5 mM glucose + 10% dialyzed FBS, 0.19 µM
[29] = RPMI 5 mM glucose + 10% dialyzed FBS, 0.569 µM
[30] = RPMI 5 mM glucose + 10% dialyzed FBS, 1.71 µM
[31] = RPMI 5 mM glucose + 10% dialyzed FBS, 5.12 µM
[32] = RPMI 5 mM glucose + 10% dialyzed FBS, 15.4 µM
[33] = RPMI 5 mM glucose + 10% dialyzed FBS, 46.1 µM

## COc1ccccc1OCCNCC(O)COc1cccc2[nH]c3ccccc3c12 (configuration not stated)
[1]
  cell viability: 114%
[2]
  cell viability: 131%
[3]
  cell viability: 105%
[4]
  cell viability: 126%
[5]
  cell viability: 115%
[6]
  cell viability: 123%
[7]
  cell viability: 124%
[8]
  cell viability: 134%
[9]
  cell viability: 115%
[10]
  cell viability: 113%
[11]
  cell viability: 87.3%
[12]
  cell viability: 107%
[13]
  cell viability: 114%
[14]
  cell viability: 98.6%
[15]
  cell viability: 118%
[16]
  cell viability: 125%
[17]
  cell viability: 123%
[18]
  cell viability: 121%
[19]
  cell viability: 133%
[20]
  cell viability: 124%
[21]
  cell viability: 96.3%
[22]
  cell viability: 91.6%
[23]
  cell viability: 115%
[24]
  cell viability: 117%
[25]
  cell viability: 91.8%
[26]
  cell viability: 119%
[27]
  cell viability: 120%
[28]
  cell viability: 132%
[29]
  cell viability: 119%
[30]
  cell viability: 128%
[31]
  cell viability: 118%
[32]
  cell viability: 107%
[33]
  cell viability: 93.5%

## CN(CCOc1ccc(NS(C)(=O)=O)cc1)CCc1ccc(NS(C)(=O)=O)cc1
[1]
  cell viability: 102%
[2]
  cell viability: 108%
[3]
  cell viability: 105%
[4]
  cell viability: 107%
[5]
  cell viability: 104%
[6]
  cell viability: 120%
[7]
  cell viability: 111%
[8]
  cell viability: 117%
[9]
  cell viability: 128%
[10]
  cell viability: 93.9%
[11]
  cell viability: 131%
[12]
  cell viability: 89.9%
[13]
  cell viability: 111%
[14]
  cell viability: 101%
[15]
  cell viability: 110%
[16]
  cell viability: 122%
[17]
  cell viability: 101%
[18]
  cell viability: 119%
[19]
  cell viability: 107%
[20]
  cell viability: 109%
[21]
  cell viability: 79.7%
[22]
  cell viability: 94.6%
[23]
  cell viability: 85.2%
[24]
  cell viability: 95.2%
[25]
  cell viability: 102%
[26]
  cell viability: 100%
[27]
  cell viability: 94%
[28]
  cell viability: 100%
[29]
  cell viability: 96.9%
[30]
  cell viability: 104%
[31]
  cell viability: 96.1%
[32]
  cell viability: 56.1%
[33]
  cell viability: 91.6%

## C=C[C@H]1CN2CCC1C[C@@H]2[C@@H](O)c1ccnc2ccccc12 (some centres not stated)
[1]
  cell viability: 95.4%
[2]
  cell viability: 95.7%
[3]
  cell viability: 103%
[4]
  cell viability: 112%
[5]
  cell viability: 98.5%
[6]
  cell viability: 96.1%
[7]
  cell viability: 91%
[8]
  cell viability: 93.6%
[9]
  cell viability: 85.2%
[10]
  cell viability: 89.1%
[11]
  cell viability: 72.1%
[12]
  cell viability: 92%
[13]
  cell viability: 105%
[14]
  cell viability: 93.2%
[15]
  cell viability: 106%
[16]
  cell viability: 108%
[17]
  cell viability: 104%
[18]
  cell viability: 100%
[19]
  cell viability: 92.9%
[20]
  cell viability: 73.5%
[21]
  cell viability: 78.1%
[22]
  cell viability: 51.1%
[23]
  cell viability: 106%
[24]
  cell viability: 100%
[25]
  cell viability: 90%
[26]
  cell viability: 106%
[27]
  cell viability: 102%
[28]
  cell viability: 103%
[29]
  cell viability: 110%
[30]
  cell viability: 94.1%
[31]
  cell viability: 87.3%
[32]
  cell viability: 86.6%
[33]
  cell viability: 64.1%

## CC(Cc1ccc(O)c(O)c1)(NN)C(=O)O (configuration not stated)
[1]
  cell viability: 103%
[2]
  cell viability: 121%
[3]
  cell viability: 130%
[4]
  cell viability: 125%
[5]
  cell viability: 122%
[6]
  cell viability: 131%
[7]
  cell viability: 105%
[8]
  cell viability: 112%
[9]
  cell viability: 108%
[10]
  cell viability: 119%
[11]
  cell viability: 79.9%
[12]
  cell viability: 117%
[13]
  cell viability: 130%
[14]
  cell viability: 122%
[15]
  cell viability: 127%
[16]
  cell viability: 126%
[17]
  cell viability: 119%
[18]
  cell viability: 99%
[19]
  cell viability: 121%
[20]
  cell viability: 110%
[21]
  cell viability: 113%
[22]
  cell viability: 76.1%

## CCCOc1ccc2[nH]c(NC(=O)OC)nc2c1
[1]
  cell viability: 106%
[2]
  cell viability: 99.4%
[3]
  cell viability: 97.6%
[4]
  cell viability: 82.9%
[5]
  cell viability: 42.1%
[6]
  cell viability: 25.4%
[7]
  cell viability: 23%
[8]
  cell viability: 25.8%
[9]
  cell viability: 25.7%
[10]
  cell viability: 24.6%
[11]
  cell viability: 23%
[12]
  cell viability: 95.3%
[13]
  cell viability: 78.3%
[14]
  cell viability: 70%
[15]
  cell viability: 60%
[16]
  cell viability: 23.6%
[17]
  cell viability: 14.1%
[18]
  cell viability: 13.2%
[19]
  cell viability: 9.52%
[20]
  cell viability: 11.6%
[21]
  cell viability: 12.1%
[22]
  cell viability: 15.1%
[23]
  cell viability: 120%
[24]
  cell viability: 123%
[25]
  cell viability: 94.4%
[26]
  cell viability: 80.2%
[27]
  cell viability: 45.2%
[28]
  cell viability: 20.1%
[29]
  cell viability: 22.5%
[30]
  cell viability: 15.3%
[31]
  cell viability: 17.5%
[32]
  cell viability: 20.8%
[33]
  cell viability: 18.7%

## NC/1=N/C(=O)N(C[C@@H](CO)OC[P](O)(O)=O)/C=C1
[1]
  cell viability: 115%
[2]
  cell viability: 130%
[3]
  cell viability: 120%
[4]
  cell viability: 126%
[5]
  cell viability: 139%
[6]
  cell viability: 126%
[7]
  cell viability: 120%
[8]
  cell viability: 125%
[9]
  cell viability: 106%
[10]
  cell viability: 105%
[11]
  cell viability: 94.6%
[12]
  cell viability: 106%
[13]
  cell viability: 103%
[14]
  cell viability: 117%
[15]
  cell viability: 99.2%
[16]
  cell viability: 111%
[17]
  cell viability: 113%
[18]
  cell viability: 98.2%
[19]
  cell viability: 95.2%
[20]
  cell viability: 100%
[21]
  cell viability: 97.7%
[22]
  cell viability: 69.7%
[23]
  cell viability: 136%
[24]
  cell viability: 111%
[25]
  cell viability: 115%
[26]
  cell viability: 122%
[27]
  cell viability: 131%
[28]
  cell viability: 106%
[29]
  cell viability: 128%
[30]
  cell viability: 123%
[31]
  cell viability: 101%
[32]
  cell viability: 111%
[33]
  cell viability: 100%

## C[C@@H](NCc1cc2ccccc2[nH]1)c1cccc2ccccc12
[1]
  cell viability: 80%
[2]
  cell viability: 80.5%
[3]
  cell viability: 86.2%
[4]
  cell viability: 83.3%
[5]
  cell viability: 77.7%
[6]
  cell viability: 107%
[7]
  cell viability: 89.7%
[8]
  cell viability: 95.9%
[9]
  cell viability: 89.2%
[10]
  cell viability: 89.7%
[11]
  cell viability: 41.9%
[12]
  cell viability: 84.1%
[13]
  cell viability: 86.6%
[14]
  cell viability: 87.2%
[15]
  cell viability: 90.3%
[16]
  cell viability: 74.5%
[17]
  cell viability: 92.2%
[18]
  cell viability: 97.5%
[19]
  cell viability: 84.4%
[20]
  cell viability: 92.9%
[21]
  cell viability: 85.9%
[22]
  cell viability: 39.5%
[23]
  cell viability: 90%
[24]
  cell viability: 84.1%
[25]
  cell viability: 86%
[26]
  cell viability: 82.9%
[27]
  cell viability: 71.7%
[28]
  cell viability: 101%
[29]
  cell viability: 93.3%
[30]
  cell viability: 93%
[31]
  cell viability: 93.1%
[32]
  cell viability: 85.6%
[33]
  cell viability: 57.9%

## CC(C)C(=O)Nc1ncc(-c2cc(C(F)F)nn2-c2c(Cl)cccc2Cl)s1
[1]
  cell viability: 109%
[2]
  cell viability: 117%
[3]
  cell viability: 120%
[4]
  cell viability: 121%
[5]
  cell viability: 130%
[6]
  cell viability: 121%
[7]
  cell viability: 133%
[8]
  cell viability: 146%
[9]
  cell viability: 124%
[10]
  cell viability: 114%
[11]
  cell viability: 48.7%
[23]
  cell viability: 102%
[24]
  cell viability: 114%
[25]
  cell viability: 140%
[26]
  cell viability: 130%
[27]
  cell viability: 124%
[28]
  cell viability: 132%
[29]
  cell viability: 138%
[30]
  cell viability: 142%
[31]
  cell viability: 134%
[32]
  cell viability: 126%
[33]
  cell viability: 57.5%
